CN(C)CCC=C1c2ccccc2CCc2ccccc21.Cl
Conditions	solubility (mole fraction)
in 2-butanone, 283.23 K	0.00254
in 2-butanone, 288.16 K	0.00275
in 2-butanone, 293.2 K	0.00304
in 2-butanone, 298.15 K	0.00338
in 2-butanone, 303.16 K	0.00375
in 2-butanone, 308.2 K	0.00415
in 2-butanone, 313.15 K	0.00462
in 2-butanone, 318.67 K	0.00518
in 2-butanone, 323.35 K	0.00584
in DMF, 283.86 K	0.03
in DMF, 288.15 K	0.032
in DMF, 293.05 K	0.0353
in DMF, 298.04 K	0.0387
in DMF, 303.05 K	0.0425
in DMF, 308.17 K	0.047
in DMF, 313.3 K	0.0519
in DMF, 318.16 K	0.0571
in DMF, 323 K	0.0633
in THF, 283.09 K	0.000628
in THF, 288.07 K	0.000755
in THF, 293.82 K	0.000884
in THF, 298.23 K	0.00101
in THF, 303.1 K	0.00116
in THF, 309.04 K	0.00135
in THF, 313.13 K	0.00152
in THF, 317.96 K	0.00174
in THF, 323.16 K	0.00196
in acetone, 283.17 K	0.00226
in acetone, 288.13 K	0.00252
in acetone, 293.2 K	0.00282
in acetone, 298.07 K	0.00316
in acetone, 303.21 K	0.00354
in acetone, 308.19 K	0.00398
in acetone, 313.2 K	0.00448
in acetone, 318.2 K	0.00503
in acetone, 323.1 K	0.00565
in acetonitrile, 283.19 K	0.00773
in acetonitrile, 288.13 K	0.0089
in acetonitrile, 293.2 K	0.0102
in acetonitrile, 298.19 K	0.0118
in acetonitrile, 303.16 K	0.0136
in acetonitrile, 308.13 K	0.0157
in acetonitrile, 313.17 K	0.0183
in acetonitrile, 318.13 K	0.0212
in acetonitrile, 323.17 K	0.0249
in cyclohexanone, 282.93 K	0.00512
in cyclohexanone, 288.07 K	0.00585
in cyclohexanone, 293.11 K	0.0066
in cyclohexanone, 298.43 K	0.00743
in cyclohexanone, 303.09 K	0.00829
in cyclohexanone, 308.26 K	0.00952
in cyclohexanone, 313.27 K	0.011
in cyclohexanone, 319.7 K	0.0128
in cyclohexanone, 323.1 K	0.0144
in isobutanol, 283.25 K	0.0281
in isopentanol, 283.17 K	0.0122
in isopentanol, 288.19 K	0.0159
in isopentanol, 293.17 K	0.0202
in isopentanol, 298.2 K	0.0256
in isopentanol, 303.23 K	0.0326
in isopentanol, 308.17 K	0.0416
in isopentanol, 313.15 K	0.0532
in isopentanol, 318.2 K	0.0671
in isopentanol, 323.17 K	0.0827
in isopropanol, 283.16 K	0.00585
in isopropanol, 288.35 K	0.00786
in isopropanol, 293.16 K	0.0102
in isopropanol, 298.16 K	0.0133
in isopropanol, 303.05 K	0.0177
in isopropanol, 308.06 K	0.0239
in isopropanol, 313.54 K	0.034
in isopropanol, 318.16 K	0.0456
in isopropanol, 323.3 K	0.0592
in n-butanol, 283.1 K	0.0203
in n-butanol, 288.2 K	0.0261
in n-butanol, 293.13 K	0.0333
in n-butanol, 298.15 K	0.042
in n-butanol, 303.4 K	0.0537
in n-butanol, 308.2 K	0.0662
in n-butanol, 313.15 K	0.0803
in n-butanol, 318.16 K	0.0953
in n-butanol, 323.23 K	0.112
in n-pentanol, 288.23 K	0.0366
in n-pentanol, 293.21 K	0.0456
in n-pentanol, 298.07 K	0.0562
in n-pentanol, 303.07 K	0.0701
in n-pentanol, 308.2 K	0.0855
in n-pentanol, 313.16 K	0.1
in n-pentanol, 318.07 K	0.117
in n-pentanol, 323.07 K	0.133
in n-propanol, 283.17 K	0.0266
in n-propanol, 288.17 K	0.0349
in n-propanol, 293.16 K	0.0442
in n-propanol, 298.1 K	0.0557
in n-propanol, 303.07 K	0.0691
in n-propanol, 308.24 K	0.0851
in n-propanol, 313.16 K	0.1
in n-propanol, 318.07 K	0.116
in n-propanol, 323.2 K	0.13
in sec-butanol, 283.2 K	0.00725
in sec-butanol, 288.2 K	0.00934
in sec-butanol, 293.21 K	0.0121
in sec-butanol, 298.1 K	0.0156
in sec-butanol, 303.17 K	0.0207
in sec-butanol, 308.13 K	0.0278
in sec-butanol, 313.2 K	0.0367
in sec-butanol, 318.17 K	0.0483
in sec-butanol, 323.2 K	0.0637

From BigSolDB 2.1
